Biological target: T1, hDNA2 (Homo sapiens, UniProt P51530)
T1 construct: made in house
T1 sequence (P51530 1-1060): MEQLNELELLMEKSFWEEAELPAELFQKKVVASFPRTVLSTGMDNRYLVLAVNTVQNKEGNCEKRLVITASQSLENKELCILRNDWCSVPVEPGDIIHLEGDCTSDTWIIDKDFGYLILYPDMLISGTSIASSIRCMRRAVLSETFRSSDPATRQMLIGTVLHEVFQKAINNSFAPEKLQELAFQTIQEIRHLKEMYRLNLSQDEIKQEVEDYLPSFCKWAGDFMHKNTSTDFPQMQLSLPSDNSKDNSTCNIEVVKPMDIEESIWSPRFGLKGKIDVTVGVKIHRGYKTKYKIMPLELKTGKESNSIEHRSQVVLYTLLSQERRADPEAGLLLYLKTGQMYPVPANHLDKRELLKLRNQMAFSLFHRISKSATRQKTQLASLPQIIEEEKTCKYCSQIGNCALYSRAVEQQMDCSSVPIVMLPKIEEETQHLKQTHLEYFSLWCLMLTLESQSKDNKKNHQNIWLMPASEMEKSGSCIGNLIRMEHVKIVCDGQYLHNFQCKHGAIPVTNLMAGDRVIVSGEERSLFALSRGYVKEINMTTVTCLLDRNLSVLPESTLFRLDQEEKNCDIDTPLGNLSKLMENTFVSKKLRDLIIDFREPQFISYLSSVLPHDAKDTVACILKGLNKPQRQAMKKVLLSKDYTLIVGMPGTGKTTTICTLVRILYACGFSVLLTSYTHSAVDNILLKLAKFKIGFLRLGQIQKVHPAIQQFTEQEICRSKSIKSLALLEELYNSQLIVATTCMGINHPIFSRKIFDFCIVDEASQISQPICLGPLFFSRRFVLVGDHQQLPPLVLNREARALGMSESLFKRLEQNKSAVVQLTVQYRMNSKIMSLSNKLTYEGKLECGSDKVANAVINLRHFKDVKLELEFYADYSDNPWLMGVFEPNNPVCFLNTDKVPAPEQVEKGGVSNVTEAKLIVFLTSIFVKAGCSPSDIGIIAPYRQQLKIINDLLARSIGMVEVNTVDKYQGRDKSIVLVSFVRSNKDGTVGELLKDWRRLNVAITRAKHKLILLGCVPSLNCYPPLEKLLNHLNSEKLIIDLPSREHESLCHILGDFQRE
Assay: 5' flap processing by hDNA2
Format: biochemical
Settings: DNA2 […], Y DNA substrate 5 nM ends
Procedure: Nuclease assays were performed in buffer R (20 mM Na-HEPES pH 7.5, 1 mM ATP, 0.1 mM DTT, 100 μg/ml bovine serum albumin, 0.05% Triton X-100, 2 mM MgCl2, 100 mM KCl) and contained 0.5 nM ends (2-kb substrate) or 5 nM ends (the ssDNA oligonucleotide PSOL6929) of DNA. Reactions containing Bloom syndrome also included an ATP regenerating system consisting of 10 mM creatine phosphate and 50 μg/ml creatine kinase. In control reactions, DMSO was used in place of the inhibitor. Reactions with DNA2 alone were incubated at 30 °C, and those with DNA2-Bloom syndrome-Replication protein A and EXO1 were incubated at 37 °C for the indicated times. […] Gels were dried onto DEAE paper on top of Whatman filter paper (GE, Issaquah, WA, USA) and then analyzed in a BioRad Personal Molecular Imager FX phosphorimager. Band intensity was quantified using Image Lab software (Bio-Rad, Hercules, CA, USA). The fraction of DNA substrate digested was determined by measuring the amount of substrate remaining and normalizing to the total substrate in the negative control lane containing no protein.
Figure S2. […] (b) Plots showing quantitation of the experiments shown in a. […] (d) Plots showing quantitation of the experiments shown in c. […] (f) Plot showing quantitation of the experiment in e. […]

Compound | 5′ flap processing by hDNA2
O=C1C(=O)c2cc([N+](=O)[O-])ccc2-c2ccccc21 [NSC-5195242, 2-nitrophenanthrene-9,10-dione] | inhibited
NC1=C(Br)C(=O)c2ncccc2C1=O [NSC-105808, 6-amino-7-bromoquinoline-5,8-dione] | inhibited

From publication PMC5520492, “Inhibition of DNA2 nuclease as a therapeutic strategy targeting replication stress in cancer cells” (Oncogenesis, 2017)
